Measured values as given in paper PMC5452262 (2016).

How the values were obtained:
[1] = system: TBP-regulated control #1 (lacks GC-rich stem) (DNA, hairpin) TTATATAAATTTTTTATATATTTTTTTTATT; assay: fluorescence anisotropy; details: 150 mM NaCl, 10 mM MgCl2; 50 mM sodium phosphate pH 7.0, 25 °C; equimolar doxorubicin and DNA, 100 nM
[2] = system: antibody-regulated DNA-nanoswitch variant #1 (DNA, hairpin) TAGTTTTTTTTTTTTTTTTCTA; assay: fluorescence anisotropy titration; details: 150 mM NaCl, 10 mM MgCl2; 50 mM sodium phosphate pH 7.0, 25 °C; 100 nM doxorubicin titrated with DNA
[3] = system: TBP-regulated DNA-nanoswitch variant #1 (DNA, hairpin) CTATATAAACCTTTTATATATCTTGGGTAGG; assay: fluorescence anisotropy titration; details: 150 mM NaCl, 10 mM MgCl2; 50 mM sodium phosphate pH 7.0, 25 °C; 100 nM doxorubicin titrated with DNA
[4] = system: TBP-regulated DNA-nanoswitch variant #2 (DNA, hairpin) CTATATAAAGCCCTTTTATATATCTTGGGTAGGGC; assay: fluorescence anisotropy titration; details: 150 mM NaCl, 10 mM MgCl2; 50 mM sodium phosphate pH 7.0, 25 °C; 100 nM doxorubicin titrated with DNA
[5] = system: TBP-regulated DNA-nanoswitch variant #3 (DNA, hairpin) CTATATAAACCGCCCTTTTATATATCTTGGGTAGGGCGG; assay: fluorescence anisotropy titration; details: 150 mM NaCl, 10 mM MgCl2; 50 mM sodium phosphate pH 7.0, 25 °C; 100 nM doxorubicin titrated with DNA
[6] = system: antibody-regulated DNA-nanoswitch variant #3 (DNA, hairpin) TCGCCGTTTTTTTTTTTTTTTTCGGCGA; assay: fluorescence anisotropy titration; details: 150 mM NaCl, 10 mM MgCl2; 50 mM sodium phosphate pH 7.0, 25 °C; 100 nM doxorubicin titrated with DNA
[7] = system: antibody-regulated DNA-nanoswitch variant #2 (DNA, hairpin) TCCGTTTTTTTTTTTTTTTTCGGA; assay: fluorescence anisotropy titration; details: 150 mM NaCl, 10 mM MgCl2; 50 mM sodium phosphate pH 7.0, 25 °C; 100 nM doxorubicin titrated with DNA

**Q.** Which binding [1] does the source give for `COc1cccc2c1C(=O)c1c(O)c3c(c(O)c1C2=O)C[C@@](O)(C(=O)CO)C[C@@H]3O[C@H]1C[C@H](N)[C@H](O)[C@H](C)O1` here?
**A.** weak

**Q.** And the binding [2]?
**A.** weak

**Q.** What about the binding [3] of the same compound?
**A.** yes

**Q.** And the binding [4]?
**A.** yes

**Q.** And the binding [5]?
**A.** yes

**Q.** And the binding [6]?
**A.** yes

**Q.** And the binding [7]?
**A.** yes
